Read-outs that look alike come from different tables or passages of the source.
How the values were obtained:
[1] = tested on: SARS-CoV-2 wild-type; test: Antiviral activity (CPE inhibition) in Vero E6 cells, wild-type; type: cell-based; settings: read-out: EC50 against SARS-CoV-2 wild-type strain
[2] = Cytotoxicity by CCK8 assay; settings: African green monkey
[3] = target: T1, SARS-CoV-2 PL^pro (Severe acute respiratory syndrome coronavirus 2, UniProt P0DTD1); test: FRET enzymatic inhibition assay, PL^pro; type: biochemical
[4] = in vitro; settings: African green monkey
[5] = target: T2, SARS-CoV-2 M^pro (Severe acute respiratory syndrome coronavirus 2, UniProt P0DTD1); test: biochemical; type: binding; settings: SPR, Biacore T200, CM5 chip, kinetics analysis
[6] = target: T2, SARS-CoV-2 M^pro; test: biochemical; settings: FRET
[7] = target: T1, SARS-CoV-2 PL^pro; test: SPR assay, PL^pro; type: binding; settings: Biacore T200, CM5 chip, kinetics analysis
[8] = Severe acute respiratory syndrome coronavirus 2, Vero C1008, MOI = 0.01, 48 h

SMILES | EC50 [1, 8] | CC50 [2] | EC50 ([1]; MOI = 0.01, 48 h) | IC50 ([3]; 1.0 μM PL^pro, 10 μM substrate, mean ± SD, n = 3, read-out: IC50 against PL^pro) | inhibition at 40 µM ([3]; compound 40 μM, read-out: inhibition effect on PL^pro) | CC50 [4] | Kd [5] | IC50 ([6]; 0.2 μM M^pro, 20 μM substrate, mean ± SD, n = 3, read-out: IC50 against M^pro) | inhibition at 40 µM ([6]; compound 40 μM, read-out: inhibition effect on M^pro) | Kd [7]
O=C(OC[C@H]1O[C@@H](OC(=O)c2cc(O)c(O)c(O)c2)[C@H](OC(=O)c2cc(O)c(O)c(O)c2)[C@@H](OC(=O)c2cc(O)c(O)c(O)c2)[C@@H]1OC(=O)c1cc(O)c(O)c(O)c1)c1cc(O)c(O)c(O)c1 [PGG, 1,2,3,4,6-penta-O-galloyl-β-D-glucose] | 8.22 µM | > 100 µM |  |  |  |  |  |  |  | 
Cn1cnc(Cn2c(=O)[nH]/c(=N\c3cc4cn(C)nc4cc3Cl)n(Cc3cc(F)c(F)cc3F)c2=O)n1 [S-217622, reference compound] |  |  | 0.05 µM |  |  |  |  |  |  | 
O=C(OC[C@H]1O[C@@H](OC(=O)c2cc(O)c(O)c(O)c2)[C@H](OC(=O)c2cc(O)c(O)c(O)c2)[C@@H](OC(=O)c2cc(O)c(O)c(O)c2)[C@@H]1O)c1cc(O)c(O)c(O)c1 [TGG, 1,2,3,6-tetra-O-galloyl-β-D-glucose] | 13 µM |  |  | 27.4 ± 2.43 µM | > 60% | > 100 µM | 0.768 µM | 1.33 ± 0.47 µM | > 60% | 0.776 µM

From paper PMC11689655, “High-throughput screening of dual-target inhibitors for SARS-CoV-2 main protease and papain-like protease from Chebulae Fructus: in silico prediction and experimental verification” (Frontiers in Microbiology, 2024)
